# Values quoted from earlier work, collected in patent publication US5763596A, “C-4' modified adenosine kinase inhibitors” (Metabasis Therapeutics, Inc., priority 1996, dated 1998).
# Where two headings read alike, the source gives them in different places.
# Experiments:
# [1] = tested on: rat cardiomyocytes; conditions: adenosine deaminase inhibition alone; cited from earlier work
# [2] = tested on: isolated guinea pig hearts; conditions: in the absence of ADA inhibition; cited from earlier work
# [3] = tested on: rat brain slices; conditions: cited from earlier work
# [4] = tested on: guinea pig brain slices; conditions: cited from earlier work
# [5] = tested on: mice; conditions: cited from earlier work
# [6] = tested on: isolated rat hearts; conditions: cited from earlier work
# [7] = in vivo; cited from earlier work
SMILES,adenosine uptake [3],adenosine uptake [4],general flaccidity [5],further results
OC[C@H]1O[C@@H](n2cnc3c2N=CNC[C@H]3O)C[C@@H]1O [2'-deoxycoformycin],,,,effect on adenosine release from the cells [1]: no effect on adenosine release
NC[C@H]1O[C@@H](n2cnc3c(N)ncnc32)[C@H](O)[C@@H]1O [5'-amino-5'-deoxyadenosine],,,,adenosine release effect [2]: not apparent
C[C@H]1O[C@@H](n2cc(I)c3c(N)ncnc32)[C@H](O)[C@@H]1O [5'-deoxy-5-iodotubercidin],adenosine uptake was reportedly inhibited,adenosine uptake was reportedly inhibited,pronounced general flaccidity,
Nc1ncnc2c1c(I)cn2[C@@H]1O[C@H](CO)[C@@H](O)[C@H]1O [5-iodotubercidin],adenosine uptake was reportedly inhibited,adenosine uptake was reportedly inhibited,pronounced general flaccidity,"increase in perfusate adenosine concentration ([6]; hypoxic, anoxic or ischemic conditions): no increase in perfusate adenosine concentration; increase in perfusate adenosine concentration ([6]; normoxic conditions): no increase in perfusate adenosine concentration; protection against ischemic cerebral injury [7]: apparently does not protect against ischemic cerebral injury"
